These are literature values, as cited in patent publication US20260130963A1, “COMPOSITIONS COMPRISING RED YEAST RICE” (Meda Pharma S.p.A., priority 2021, published 2026).

Converted amounts (≈) assume the structure as drawn.

For data set [1] the following is noted: in vivo.
The conditions of data set [2]: “low solubility/high permeability”.

By half-life is commonly meant how long it takes for the measured level to halve. Consider `CC[C@H](C)C(=O)O[C@H]1C[C@@H](C)C=C2C=C[C@H](C)[C@H](CC[C@@H]3C[C@@H](O)CC(=O)O3)[C@H]21` [Lovastatin], for which the water solubility is 0.4 µg/mL (≈ 0.989 µM). In data set [1], the half-life is 1 to 2 h. Further, the BCS classification entry in data set [2] is “BCS Class II”.
